Patent publication US10638756B2, “Molecules having pesticidal utility, and intermediates, compositions, and processes, related thereto” (Dow AgroSciences LLC, priority 2017, dated 2020)

What was measured:
Type in all cases: in vivo
[1] = test system: Beet Armyworm (Spodoptera exigua); assay: Bioassay on Beet Armyworm (BAW), 128-well diet tray assay; details: Spodoptera exigua, 168 h; 50 μg/cm^2 on artificial diet, second instar larvae, five to seven days; read-out: BAW % Control (or Mortality) rating
[2] = test system: Yellow Fever Mosquito (Aedes aegypti); details: about 1 day-old larvae, 3 days, scored on mortality
Description: Certain molecules disclosed in this document were tested against YFM using procedures described in the following paragraph. In the reporting of the results, the “GPA & YFM Rating Table” was used (See Table Section).
Master plates containing 400 μg of a molecule dissolved in 100 μL of dimethyl sulfoxide (DMSO) (equivalent to a 4000 ppm solution) are used. A master plate of assembled molecules contains 15 μL per well. To this plate, 135 μL of a 90:10 water/acetone mixture is added to each well. A robot (Biomek® NXP Laboratory Automation Workstation) is programmed to dispense 15 μL aspirations from the master plate into an empty 96-well shallow plate (“daughter” plate). There are 6 reps (“daughter” plates) created per master. The created “daughter” plates are then immediately infested with YFM larvae.
The day before plates are to be treated, mosquito eggs are placed in Millipore water containing liver powder to begin hatching (4 g. into 400 mL). After the “daughter” plates are created using the robot, they are infested with 220 μL of the liver powder/larval mosquito mixture (about 1 day-old larvae). After plates are infested with mosquito larvae, a non-evaporative lid is used to cover the plate to reduce drying. Plates are held at room temperature for 3 days prior to grading. After 3 days, each well is observed and scored based on mortality. The results are indicated in the table entitled “Table ABC: Biological Results” (See Table Section).

[3] = test system: Cabbage Looper (Trichoplusia ni); assay: Bioassay on Cabbage Looper (CL), 128-well diet tray assay; details: 168 h, 50 μg/cm^2 on artificial diet, second instar larvae, five to seven days, read-out: CL % Control (or Mortality) rating
How it was run: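 Second-instar larvae (1–5 per well) placed on artificial diet surface-treated with 50 μg/cm^2 test molecule applied in 90:10 acetone-water and dried. Held at 25° C., 14:10 light-dark, for five to seven days. Percent mortality scored per well and averaged over eight wells.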

| Structure (SMILES) | mortality at 50 µg/cm2 [1] [%] | YFM % Control (or Mortality) rating [2] | mortality at 50 µg/cm2 [3] [%] |
| --- | --- | --- | --- |
| O=C(NNc1ncccn1)c1ccc(/C(F)=C/C(c2cc(Cl)c(Br)c(Cl)c2)C(F)(F)F)cc1C(F)(F)F (stereo not drawn) [F172, (Z)-4-(3-(4-Bromo-3,5-dichlorophenyl)-1,4,4,4-tetrafluorobut-1-en-1-yl)-N′-(pyrimidin-2-yl)-2-(trifluoromethyl)benzohydrazide] | 50 to 100 | A (80-100) | 50 to 100 |
| CN(NC(=O)c1ccc(/C(F)=C/C(c2cc(Cl)c(Cl)c(Cl)c2)C(F)(F)F)cc1C(F)(F)F)c1nccs1 (stereo not drawn) [F158, (Z)—N′-methyl-4-(1,4,4,4-tetrafluoro-3-(3,4,5-trichlorophenyl)but-1-en-1-yl)-N′-(thiazol-2-yl)-2-(trifluoromethyl)benzohydrazide] | 50 to 100 | A (80-100) | 50 to 100 |
| O=C(NNCc1ccccc1)c1ccc(/C(F)=C/C(c2cc(Cl)c(Cl)c(Cl)c2)C(F)(F)F)cc1C(F)(F)F (stereo not drawn) [F54, (Z)—N′-Benzyl-4-(1,4,4,4-tetrafluoro-3-(3,4,5-trichlorophenyl)but-1-en-1-yl)-2-(trifluoromethyl)benzohydrazide] | 50 to 100 | A (80-100) | 50 to 100 |
| O=C(NNc1cc(F)ccc1F)c1ccc(/C(F)=C/C(c2cc(Cl)c(Cl)c(Cl)c2)C(F)(F)F)cc1C(F)(F)F (stereo not drawn) [F134, (Z)—N′-(2,5-Difluorophenyl)-4-(1,4,4,4-tetrafluoro-3-(3,4,5-trichlorophenyl)but-1-en-1-yl)-2-(trifluoromethyl)benzohydrazide] | 50 to 100 | A (80-100) | 50 to 100 |
| N#Cc1ccc(NNC(=O)c2ccc(/C(F)=C/C(c3cc(Cl)c(Cl)c(Cl)c3)C(F)(F)F)cc2C(F)(F)F)cc1 (stereo not drawn) [F111, (Z)—N′-(4-Cyanophenyl)-4-(1,4,4,4-tetrafluoro-3-(3,4,5-trichlorophenyl)but-1-en-1-yl)-2-(trifluoromethyl)benzohydrazide] | 50 to 100 | A (80-100) | 50 to 100 |
| O=C(NNc1ncccc1Cl)c1ccc(/C(F)=C/C(c2cc(Cl)c(Cl)c(Cl)c2)C(F)(F)F)cc1C(F)(F)F (stereo not drawn) [F99, (Z)—N′-(3-Chloropyridin-2-yl)-4-(1,4,4,4-tetrafluoro-3-(3,4,5-trichlorophenyl)but-1-en-1-yl)-2-(trifluoromethyl)benzohydrazide] | 50 to 100 | A (80-100) | 50 to 100 |
| CN(NC(=O)c1ccc(/C(F)=C/C(c2ccc(Br)c(C(F)(F)F)c2)C(F)(F)F)cc1C(F)(F)F)c1ncccn1 (stereo not drawn) [F39, (Z)-4-(3-(4-Bromo-3-(trifluoromethyl)phenyl)-1,4,4,4-tetrafluorobut-1-en-1-yl)-N′-methyl-N′-(pyrimidin-2-yl)-2-(trifluoromethyl)benzohydrazide] | 50 to 100 | A (80-100) | 50 to 100 |
| O=C(NNc1ncccn1)c1ccc(/C(F)=C/C(c2cc(Cl)c(Cl)c(Cl)c2)C(F)(F)F)cc1Br (stereo not drawn) [F128, (Z)-2-Bromo-N′-(pyrimidin-2-yl)-4-(1,4,4,4-tetrafluoro-3-(3,4,5-trichlorophenyl)but-1-en-1-yl)benzohydrazide] | 50 to 100 | A (80-100) | 50 to 100 |
| O=C(NNc1ccccn1)c1ccc(/C(F)=C/C(c2cc(Cl)c(Cl)c(Cl)c2)C(F)(F)F)cc1C(F)(F)F (stereo not drawn) [F9, (Z)—N′-(Pyridin-2-yl)-4-(1,4,4,4-tetrafluoro-3-(3,4,5-trichlorophenyl)but-1-en-1-yl)-2-(trifluoromethyl)benzohydrazide] | 50 to 100 | A (80-100) | 50 to 100 |
